Consider 1 substance from patent publication US5639726A, “Peptide mediated enhancement of thrombolysis methods and compositions” (The Regents of the University of Michigan, priority 1994, dated 1997).

Ends that are not written are not given here.

Assay [1] deals with T1, PAI-1 (Homo sapiens, UniProt P05121).
T1 construct: made in house; host or cells: E. coli (vector pET3a)
The assay can be described thus: Plasminogen activator inhibitor 1 activity assay (t-PA, Spectrozyme t-PA). It counts as biochemical. The conditions noted are these: for PAI-1 T1/2: PAI-1 0.7 μM, peptide 55 μM, 98±18 min without peptide. As to the method: PAI-1 (0.7 μM) was incubated at 37° C. with either P1-P14 peptide or control peptide (55 μM) in 0.1M HEPES, 0.1M NACl, 0.1% PEG (MW 8000), pH 7.4 (assay buffer). At timed intervals 0-110 minutes), 5 μL of the PAI-1:peptide mixture was added to 96 well microtiter plates containing 45 μL of t-PA (0.03 μM in assay buffer), then incubated for 30 minutes at 37° C. Spectrozyme t-PA (final concentration of 150 μM) was added to yield a final reaction volume of 70 μL, and 30 minutes later the absorbance at 405 nm was determined in a THERMO-max (Molecular Devices, Palo Alto, Calif.) microplate reader. 100% PAI-1 activity was defined as activity observed at time zero, while 0% PAI-1 activity was defined as that observed in the absence of PAI-1. A standard t-PA activity curve, derived from absorbance values of varying concentrations of t-PA incubated in the absence of PAI-1, was used to determine PAI-1 activity.

Assay [2] addresses T1, PAI-1. In words: Thermal denaturation of peptide treated PAI-1. The conditions noted are these: FIG. 4. The text has this:
Circular dichroism (CD) spectra analysis (Strandberg et al., 1991) indicated similar secondary structural components for the PAI-1 mutants, as well as active and latent wild-type PAI-1.
(Lawrence et al., 1994c). […] As expected, active PAI-1 was much less thermally stable than latent PAI-1 or elastase cleaved PAI-1 (FIG. 4). […] This is precisely the behavior expected for a serpin with a peptide intercalated into β-sheet A (Carrell et al., 1991; Schulze et al., 1990; Bjork et al., 1992). […] If the 14 residue peptide were intercalated into β-sheet A, then the added length of the peptide bound to sheet A would be expected to increase the stability not decrease it.
Upon completion of peptide annealing, the incubation solution contained a mixture of annealed PAI-peptide, latent PAI, and excess peptide. For circular dichroism (CD) spectra, melting curves, and mass spectroscopy determinations, the excess peptide was removed. This was done by loading the mixture on a heparin-sepharose column which had been equilibrated with 0.05M sodium phosphate, 0.15M NaCl, 1 mM EDTA, 0.01% TWEEN-80, pH 6.6. Washing the column with this buffer removed the excess peptide. The PAI-peptide and latent PAI were eluted together with 0.05M Sodium phosphate, 1M NaCl, 1 mM EDTA, 0.01% TWEEN-80, pH 6.6. […] The absorbance at 280 nm was used to determine the final protein concentration. […]

The target of assay [3] is T1, PAI-1. The assay can be described thus: Native gel electrophoresis of PAI incubated with peptide. The class given is binding. The protocol:
SDS-polyacrylamide gel electrophoresis (SDS-PAGE) under nonreducing conditions was carried out according to the method of Laemmli (Laemmli, 1970) on 10% gels. Native gel electrophoresis with 5% gels was carried out by omitting SDS and boiling from Laemmli's method. All gels were stained with Coomassie brilliant blue. Gels of PAI-peptide samples were scanned with an LKB Ultroscan XL Laser Densitometer to determine the relative amounts of peptide-annealed and latent PAI.
Four of the five peptides have a net negative charge due to glutamic acid residues and the free carboxy terminus (FIG. 1). The wtPAI 8-mer has a net -1 charge (the carboxy terminus). The V→E PAI 8-mer (SEQ ID NO:3) and consensus 8-mer (SEQ ID NO:4) each have a -2 charge (the glutamic acid residue and the carboxyl group). […] The PAI 14-mer (SEQ ID NO:1) is uncharged since it contains no glutamic acid and the arginine and carboxyl groups neutralize each other. Because of the negative charges of 4 of the peptides, native gels of PAI annealed to these peptides should show a band which migrates more quickly than the band representative of free active PAI. Similarly, if one of these peptides is incubated with PAI but fails to form a strong interaction with PAI, native gels should show a band which migrates identically to the free PAI.

In assay [4] the test system is fibrin clot. In words: In vitro clot lysis assay, fluorescein-labeled fibrin clots with recombinant PAI-1. It counts as biochemical, human. As to the method:
Clot lysis assays were performed as previously described (Fay et al., 1994). A mixture of glu-plasminogen (0.2 μM), fluorescein-labeled fibrinogen (3 μM), PAI-1 (0.7 μM) was prepared. t-PA (20 nM) was added 30 minutes after clot formation and clot lysis was allowed to occur for 60 minutes at 37° C., after which the tubes were centrifuged (16,000×3 min), and 80 μL of the supernatant was removed and diluted into 1.2 mL of 10 mM Tris-HCl, 140 mM NaCl, pH 7.5. The fluorescence of this dilution was measured and % clot lysis was calculated, as previously described (Fay et al., 1994). The capacity of P1-P14 peptide to accelerate fibrinolysis in vitro, both in the absence and presence of platelets was also evaluated. Fluorescein-labeled fibrin clots were formed in the presence of recombinant PAI-1 (0.7 μM) and either P1-P14 peptide (55 μM), an irrelevant 14 amino acid peptide (55 μM), or no peptide. After 30 min at 37° C., fibrinolysis was initiated by the addition of t-PA (20 nM), and % clot lysis was determined 60 min later. Addition of P1-P14 peptide increased clot lysis from 28±7% to 90±6% (mean±SEM of triplicate experiments), whereas the control peptide had no effect on clot lysis either in the presence or absence of PAI-1 (FIG. 6a). In similar experiments, platelet-rich clots were formed by clotting fluorescein-labeled fibrinogen in the presence of 2.5×10^8 platelets/mL, and fibrinolysis was initiated by the addition of t-PA (75 pM).

T1 sequence (P05121 24-402): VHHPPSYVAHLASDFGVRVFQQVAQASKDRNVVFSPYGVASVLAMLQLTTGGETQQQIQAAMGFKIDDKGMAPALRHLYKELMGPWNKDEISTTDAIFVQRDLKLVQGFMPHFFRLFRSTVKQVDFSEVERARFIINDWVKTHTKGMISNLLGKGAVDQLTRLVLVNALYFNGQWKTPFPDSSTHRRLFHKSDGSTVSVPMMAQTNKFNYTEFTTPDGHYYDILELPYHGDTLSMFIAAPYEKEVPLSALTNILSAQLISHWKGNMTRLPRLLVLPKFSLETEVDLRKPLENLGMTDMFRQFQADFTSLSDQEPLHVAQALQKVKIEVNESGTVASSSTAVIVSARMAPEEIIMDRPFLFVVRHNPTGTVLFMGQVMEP

Take “Ac-TVASSSTAVIVSAR [SEQ ID NO: 1, Thr-Val-Ala-Ser-Ser-Ser-Thr-Ala-Val-Ile-Val-Ser-Ala-Arg]”: in assay [1] (37° C.), the “PAI-1 T1/2” value is reported as “approximately four”. In assay [1] (37° C., listed as P1-P14 peptide), the “PAI-1 T1/2” value worked out at 4 ± 3 min. In assay [1] (37° C., peptide 55 μM vs no peptide, listed as P1-P14 peptide), the “fold shortening of the PAI-1 T1/2” value was 24 fold. Further, in assay [1] (similar peptide concentrations (55 μM)), the “drop in t1/2, wt14-mer (37° C.) compared to wt8-mer (25° C.)” value is given as 100 fold. Also, the “thermal stability of peptide treated PAI-1” value in assay [2] is given as “very similar to latent PAI-1”. The “electrophoretic mobility of active PAI incubated with peptide, native gel” value in assay [3] is “a band at the same position as free active PAI”. In assay [4], the “dependence of the degree of clot lysis on peptide concentration” value is “proportional” and the “inhibition of PAI-1 function in the presence of fibrin” value was “nearly completely inhibited”. For the same substance, in assay [4] (absence of PAI-1), the “effect on clot lysis in the absence of PAI-1” value was “no augmentation of fibrinolysis”. The “clot lysis at 60 minutes” value in assay [4] (presence of PAI-1 (0.7 μM), peptide 55 μM, t-PA 20 nM, 28±7% without peptide) is reported as 90±6%.
